This passage reports IC50 results from patent publication US11780893B2, “Kv1.3 blockers” (Zealand Pharma A/S, priority 2019, dated 2023).

Where two headings read alike, the source gives them in different places. Bridge positions count the residues as written; N and C are the ends. Square brackets hold non-standard residues; d marks the D form. Peptide text beside a SMILES is read from it. Phe(4-NO2) = N[C@@H](Cc1ccc([N+](=O)[O-])cc1)C(=O)O; Nle = CCCC[C@H](N)C(=O)O; Abu = CC[C@H](N)C(=O)O A value given as a limit tells only on which side of the number the result lay.

The target in test [1] is T1, human Kv1.3 voltage-gated K+ channel (Homo sapiens, UniProt P22001).
T1 construct: host or cells: CHO-DUKX
T1 sequence (P22001 whole entry): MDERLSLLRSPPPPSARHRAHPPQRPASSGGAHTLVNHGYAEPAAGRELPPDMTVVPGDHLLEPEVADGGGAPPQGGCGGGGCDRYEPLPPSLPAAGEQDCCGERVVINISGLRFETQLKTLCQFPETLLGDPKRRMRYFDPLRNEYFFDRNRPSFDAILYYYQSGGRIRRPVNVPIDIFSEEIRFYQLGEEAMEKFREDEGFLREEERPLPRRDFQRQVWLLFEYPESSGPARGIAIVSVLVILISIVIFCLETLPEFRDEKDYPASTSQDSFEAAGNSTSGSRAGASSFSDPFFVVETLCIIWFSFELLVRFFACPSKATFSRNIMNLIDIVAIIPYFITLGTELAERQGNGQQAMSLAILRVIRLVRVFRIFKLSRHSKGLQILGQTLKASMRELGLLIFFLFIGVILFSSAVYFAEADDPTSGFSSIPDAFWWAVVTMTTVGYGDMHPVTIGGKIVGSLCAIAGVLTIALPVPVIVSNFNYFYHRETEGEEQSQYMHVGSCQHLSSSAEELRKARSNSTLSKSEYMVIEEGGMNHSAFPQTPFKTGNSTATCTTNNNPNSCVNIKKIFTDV
Put plainly: cell-based. The settings on record: inhibition of thallium flux, CHO-DUKX cells with human Kv1.3; read-out: IC50.

The target of the next test is Rat whole blood (Rattus norvegicus, UniProt P15384).
Sequence of Rat whole blood (P15384 whole entry): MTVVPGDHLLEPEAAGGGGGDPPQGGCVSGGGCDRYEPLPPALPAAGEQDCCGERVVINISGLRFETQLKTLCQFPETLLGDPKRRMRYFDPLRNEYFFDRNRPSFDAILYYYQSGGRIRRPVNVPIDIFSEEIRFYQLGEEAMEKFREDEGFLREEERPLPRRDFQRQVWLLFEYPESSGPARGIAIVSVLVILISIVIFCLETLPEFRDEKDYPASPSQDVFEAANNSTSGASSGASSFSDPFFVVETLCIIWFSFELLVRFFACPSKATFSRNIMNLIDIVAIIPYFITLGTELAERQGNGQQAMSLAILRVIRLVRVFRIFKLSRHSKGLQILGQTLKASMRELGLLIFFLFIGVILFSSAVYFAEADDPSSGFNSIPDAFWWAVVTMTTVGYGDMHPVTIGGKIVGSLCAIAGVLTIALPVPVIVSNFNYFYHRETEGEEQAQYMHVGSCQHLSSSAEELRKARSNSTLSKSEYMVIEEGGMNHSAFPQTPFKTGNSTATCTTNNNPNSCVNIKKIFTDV
[2] abbreviates: inhibition of IL-17A release, thapsigargin, 24 Hr, at least 2 replicates.

As a reminder, the IC50 is the concentration that inhibits the measured activity by half. For the molecule `CCCC[C@@H]1NC(=O)[C@@H]2CSSC[C@H](NC(=O)[C@H](CCCNC(=N)N)NC(=O)[C@H](CCCC)NC(=O)[C@H](CC(=O)O)NC(=O)[C@H](CCCC)NC(=O)[C@@H](N)CO)C(=O)N[C@@H](CO)C(=O)N[C@@H](C)C(=O)N[C@@H](CO)C(=O)N[C@@H](C(C)C)C(=O)N[C@@H](CCC(=O)O)C(=O)N[C@H]3CSSC[C@H](NC(=O)[C@H](CCCCN)NC(=O)[C@H](CCCCN)NC(=O)[C@H](CC(N)=O)NC1=O)C(=O)N[C@@H](CCCCN)C(=O)N[C@H](C(=O)N[C@@H](Cc1ccc(O)cc1)C(=O)N1CCC[C@H]1C(=O)N[C@@H](CCCNC(=N)N)C(N)=O)CSSC[C@H](NC(=O)[C@H](CCCCN)NC(=O)[C@H](CCC(=O)O)NC(=O)[C@H](CCCCN)NC3=O)C(=O)N[C@@H](CC(C)C)C(=O)N[C@@H](CCC(N)=O)C(=O)N[C@@H](C)C(=O)N[C@@H]([C@@H](C)CC)C(=O)NCC(=O)N[C@@H](CO)C(=O)N[C@@H]([C@@H](C)CC)C(=O)N[C@@H](Cc1ccccc1)C(=O)NCC(=O)N[C@@H](CCCCN)C(=O)N2` [Compound 84] (H-S[Nle]D[Nle]RCSASVECKEKCLQAIGSIFGKC[Nle]NKKCKCYPR-NH2; disulfide 6-27, 12-32, 16-34), the IC50 was 0.084 nM in test [1], at most 1 nM on Rat whole blood and 0.69 nM at Rat whole blood (setting [2]).
For the molecule `CC[C@H](C)[C@@H]1NC(=O)[C@H](C)NC(=O)[C@H](CCCCN)NC(=O)[C@H](CC(C)C)NC(=O)[C@@H]2CSSC[C@@H](C(=O)N[C@@H](Cc3ccc(O)cc3)C(=O)N3CCC[C@H]3C(=O)N[C@@H](CCCNC(=N)N)C(N)=O)NC(=O)[C@H](C(C)C)NC(=O)[C@@H]3CSSC[C@H](NC(=O)[C@H](CCC(=O)O)NC(=O)[C@H](C(C)C)NC(=O)[C@H](CO)NC(=O)[C@H](C)NC(=O)[C@H](CO)NC(=O)[C@@H](NC(=O)[C@H](CCCNC(=N)N)NC(=O)[C@H](CCSC)NC(=O)[C@H](CC(=O)O)NC(=O)[C@H](CCSC)NC(=O)[C@@H](N)CC(N)=O)CSSC[C@H](NC(=O)[C@H](CCCCN)NC(=O)CNC(=O)[C@H](Cc4ccccc4)NC(=O)[C@H]([C@@H](C)CC)NC(=O)[C@H](CO)NC(=O)CNC1=O)C(=O)N[C@@H](CCSC)C(=O)N[C@@H](CC(N)=O)C(=O)N[C@@H](CCCCN)C(=O)N[C@@H](CCCCN)C(=O)N3)C(=O)N[C@@H](CCCCN)C(=O)N[C@@H](CCC(N)=O)C(=O)N[C@@H](CCCCN)C(=O)N2` [Compound 38] (H-NMDMRCSASVECKQKCLKAIGSIFGKCMNKKCVCYPR-NH2; disulfide 6-27, 12-32, 16-34), the IC50 in test [1] was 0.46 nM; on Rat whole blood (setting [2]), 2.8 nM.
With `CCCC[C@@H]1NC(=O)[C@@H]2CSSC[C@H](NC(=O)[C@H](CCCNC(=N)N)NC(=O)[C@H](CC(C)C)NC(C)=O)C(=O)N[C@@H](CO)C(=O)N[C@@H](C)C(=O)N[C@@H](CO)C(=O)N[C@@H](C(C)C)C(=O)N[C@@H](CCC(=O)O)C(=O)N[C@H]3CSSC[C@H](NC(=O)[C@H](CCCCN)NC(=O)[C@H](CCCCN)NC(=O)[C@H](CC(N)=O)NC1=O)C(=O)N[C@@H](CCCCN)C(=O)N[C@H](C(=O)N[C@@H](Cc1ccc(O)cc1)C(=O)N1CCC[C@H]1C(=O)N[C@@H](CCCNC(=N)N)C(=O)O)CSSC[C@H](NC(=O)[C@H](CCCCN)NC(=O)[C@H](CCC(N)=O)NC(=O)[C@H](CCCCN)NC3=O)C(=O)N[C@@H](CC(C)C)C(=O)N[C@@H](C)C(=O)N[C@@H](C)C(=O)N[C@@H]([C@@H](C)CC)C(=O)NCC(=O)N[C@@H](CO)C(=O)N[C@@H]([C@@H](C)CC)C(=O)N[C@@H](Cc1ccccc1)C(=O)NCC(=O)N[C@@H](CCCCN)C(=O)N2` [Compound 115] (Ac-LRCSASVECKQKCLAAIGSIFGKC[Nle]NKKCKCYPR-OH; disulfide 3-24, 9-29, 13-31), the values for the IC50 (in test [1]; on Rat whole blood; on Rat whole blood (setting [2])) were 0.31 nM, at most 1 nM and 0.9 nM, respectively.
As to `CCCC[C@@H]1NC(=O)[C@@H]2CSSC[C@H](NC(=O)[C@H](CCCNC(=N)N)NC(=O)[C@H](CCCC)NC(=O)[C@H](CC(=O)O)NC(=O)[C@H](CCCC)NC(=O)[C@@H](N)CC(N)=O)C(=O)N[C@@H](CO)C(=O)N[C@@H](C)C(=O)N[C@@H](CO)C(=O)N[C@@H](C(C)C)C(=O)N[C@@H](CCC(=O)O)C(=O)N[C@H]3CSSC[C@H](NC(=O)[C@H](CCCCN)NC(=O)[C@H](CCCCN)NC(=O)[C@H](CC(N)=O)NC1=O)C(=O)N[C@@H](CCCCN)C(=O)N[C@H](C(=O)N[C@@H](Cc1ccc(O)cc1)C(=O)N1CCC[C@H]1C(=O)N[C@@H](CCCNC(=N)N)C(N)=O)CSSC[C@H](NC(=O)[C@H](CCCCN)NC(=O)[C@H](CCC(N)=O)NC(=O)[C@H](CCC(=O)O)NC3=O)C(=O)N[C@@H](CC(C)C)C(=O)N[C@@H](CCCCN)C(=O)N[C@@H](C)C(=O)N[C@@H]([C@@H](C)CC)C(=O)NCC(=O)N[C@@H](CO)C(=O)N[C@@H]([C@@H](C)CC)C(=O)N[C@@H](Cc1ccccc1)C(=O)NCC(=O)N[C@@H](CCCCN)C(=O)N2` [Compound 43] (H-N[Nle]D[Nle]RCSASVECEQKCLKAIGSIFGKC[Nle]NKKCKCYPR-NH2; disulfide 6-27, 12-32, 16-34), the IC50 is 0.5 nM in test [1], at most 1 nM against Rat whole blood and 0.99 nM against Rat whole blood (setting [2]).
As to `CCCC[C@H](NC(=O)[C@H](CC(=O)O)NC(=O)[C@H](CCCC)NC(=O)[C@@H](N)CO)C(=O)N[C@@H](CCCNC(=N)N)C(=O)N[C@H]1CSSC[C@@H]2NC(=O)[C@H](CCCCN)NC(=O)CNC(=O)[C@H](Cc3ccccc3)NC(=O)[C@H]([C@@H](C)CC)NC(=O)[C@H](CO)NC(=O)CNC(=O)[C@H]([C@@H](C)CC)NC(=O)[C@H](C)NC(=O)[C@H](CCCCN)NC(=O)[C@H](CC(C)C)NC(=O)[C@@H]3CSSC[C@@H](C(=O)N[C@@H](Cc4ccc(O)cc4)C(=O)N4CCC[C@H]4C(=O)N[C@@H](CCCNC(=N)N)C(N)=O)NC(=O)[C@H](CCCCN)NC(=O)[C@H](CSSC[C@H](NC(=O)[C@H](CCC(=O)O)NC(=O)[C@H](C(C)C)NC(=O)[C@H](CC)NC(=O)[C@H](C)NC(=O)[C@H](CO)NC1=O)C(=O)N[C@@H](CCCCN)C(=O)N[C@@H](CCC(N)=O)C(=O)N[C@@H](CCCCN)C(=O)N3)NC(=O)[C@H](CCCCN)NC(=O)[C@H](CCCCN)NC(=O)[C@H](CC(N)=O)NC(=O)[C@H](CCSC)NC2=O` [Compound 68] (H-S[Nle]D[Nle]RCSA[Abu]VECKQKCLKAIGSIFGKCMNKKCKCYPR-NH2; disulfide 6-27, 12-32, 16-34), the results for the IC50 (in test [1]; at Rat whole blood; against Rat whole blood (setting [2])) were 0.2 nM, at most 1 nM and 0.93 nM, respectively.
Consider `CCCC[C@H](NC(=O)[C@H](CC(=O)O)NC(=O)[C@H](CCCC)NC(=O)[C@@H](N)CO)C(=O)N[C@@H](CCCNC(=N)N)C(=O)N[C@H]1CSSC[C@@H]2NC(=O)[C@H](CCCCN)NC(=O)CNC(=O)[C@H](Cc3ccccc3)NC(=O)[C@H]([C@@H](C)CC)NC(=O)[C@H](CO)NC(=O)CNC(=O)[C@H]([C@@H](C)CC)NC(=O)[C@H](C)NC(=O)[C@H](CCCCN)NC(=O)[C@H](CC(C)C)NC(=O)[C@@H]3CSSC[C@@H](C(=O)N[C@@H](Cc4ccc([N+](=O)[O-])cc4)C(=O)N4CCC[C@H]4C(=O)N[C@@H](CCCNC(=N)N)C(N)=O)NC(=O)[C@H](CCCCN)NC(=O)[C@H](CSSC[C@H](NC(=O)[C@H](CCC(=O)O)NC(=O)[C@H](C(C)C)NC(=O)[C@H](CO)NC(=O)[C@H](C)NC(=O)[C@H](CO)NC1=O)C(=O)N[C@@H](CCCCN)C(=O)N[C@@H](CCC(N)=O)C(=O)N[C@@H](CCCCN)C(=O)N3)NC(=O)[C@H](CCCCN)NC(=O)[C@H](CCCCN)NC(=O)[C@H](CC(N)=O)NC(=O)[C@H](CCSC)NC2=O` [Compound 92] (H-S[Nle]D[Nle]RCSASVECKQKCLKAIGSIFGKCMNKKCKC[Phe(4-NO2)]PR-NH2; disulfide 6-27, 12-32, 16-34), for which the 50% inhibitory concentration (IC50) in test [1] was determined as 0.49 nM; at Rat whole blood (setting [2]) it was 1.3 nM.
The corresponding values for `CCCC[C@H](NC(=O)[C@H](CC(=O)O)NC(=O)[C@H](CCCC)NC(=O)[C@@H](N)CO)C(=O)N[C@@H](CCCNC(=N)N)C(=O)N[C@H]1CSSC[C@@H]2NC(=O)[C@H](CCCCN)NC(=O)CNC(=O)[C@H](Cc3ccccc3)NC(=O)[C@H]([C@@H](C)CC)NC(=O)[C@H](CO)NC(=O)CNC(=O)[C@H]([C@@H](C)CC)NC(=O)[C@H](C)NC(=O)[C@H](CCCCN)NC(=O)[C@H](CC(C)C)NC(=O)[C@@H]3CSSC[C@@H](C(=O)N[C@@H](Cc4ccc(O)cc4)C(=O)N[C@@H](CCC(N)=O)C(N)=O)NC(=O)[C@H](CCCCN)NC(=O)[C@H](CSSC[C@H](NC(=O)[C@H](CCC(=O)O)NC(=O)[C@H](C(C)C)NC(=O)[C@H](CO)NC(=O)[C@H](C)NC(=O)[C@H](CO)NC1=O)C(=O)N[C@@H](CCCCN)C(=O)N[C@@H](CCC(N)=O)C(=O)N[C@@H](CCCCN)C(=O)N3)NC(=O)[C@H](CCCCN)NC(=O)[C@H](CCCCN)NC(=O)[C@H](CC(N)=O)NC(=O)[C@H](CCSC)NC2=O` [Compound 74] (H-S[Nle]D[Nle]RCSASVECKQKCLKAIGSIFGKCMNKKCKCYQ-NH2; disulfide 6-27, 12-32, 16-34) are 0.36 nM and 1.6 nM.
Regarding `CCCC[C@@H]1NC(=O)[C@@H]2CSSC[C@H](NC(=O)[C@H](CCCNC(=N)N)NC(=O)[C@H](CCCC)NC(=O)[C@H](CC(=O)O)NC(=O)[C@H](CCCC)NC(=O)[C@@H](N)CC(N)=O)C(=O)N[C@@H](CO)C(=O)N[C@@H](C)C(=O)N[C@@H](CO)C(=O)N[C@@H](C(C)C)C(=O)N[C@@H](CCC(=O)O)C(=O)N[C@H]3CSSC[C@H](NC(=O)[C@H](CCCCN)NC(=O)[C@H](CCCCN)NC(=O)[C@H](CC(N)=O)NC1=O)C(=O)N[C@@H](CCCCN)C(=O)N[C@H](C(=O)N[C@@H](Cc1ccc(O)cc1)C(=O)N1CCC[C@H]1C(=O)N[C@@H](CCCNC(=N)N)C(N)=O)CSSC[C@H](NC(=O)[C@H](CCCCN)NC(=O)[C@H](CCC(N)=O)NC(=O)[C@H](CCC(N)=O)NC3=O)C(=O)N[C@@H](CC(C)C)C(=O)N[C@@H](CCCCN)C(=O)N[C@@H](C)C(=O)N[C@@H]([C@@H](C)CC)C(=O)NCC(=O)N[C@@H](CO)C(=O)N[C@@H]([C@@H](C)CC)C(=O)N[C@@H](Cc1ccccc1)C(=O)NCC(=O)N[C@@H](CCCCN)C(=O)N2` [Compound 44] (H-N[Nle]D[Nle]RCSASVECQQKCLKAIGSIFGKC[Nle]NKKCKCYPR-NH2; disulfide 6-27, 12-32, 16-34), the half-inhibitory concentration (IC50) worked out at 0.13 nM in test [1] and 1.1 nM on Rat whole blood (setting [2]).
